Assay: solvent given as SMILES

C=C1C2CCC(C2)C1(C)CCC=C(C)C (stereo unspecified)
Conditions | solvation free energy, 298 K [kcal/mol]
in O | 0.35

O=C(c1ccccc1)C(O)c1ccccc1 (stereo unspecified)
Conditions | solvation free energy, 298 K [kcal/mol]
in C1COCCO1 | -16.5
in CC(C)(C)O | -14.6
in CC(C)CCO | -14.6
in CC(C)CO | -14.6
in CC(C)O | -14.6
in CCC(C)O | -14.6
in CCCC(C)O | -14.5
in CCCCCCCCCCO | -14.5
in CCCCCCCCO | -14.6
in CCCCCCCO | -14.6
in CCCCCCO | -14.6
in CCCCCO | -14.7
in CCCCO | -14.7
in CCCCOC(C)=O | -15.4
in CCCCOCCCC | -14.2
in CCCO | -14.9
in CCO | -15
in CCOC(C)=O | -15.7
in CCc1ccccc1 | -14.9
in COC(C)(C)C | -14.8
in COC(C)=O | -15.9
in Cc1ccc(C)cc1 | -15
in Cc1ccccc1 | -15.2
in Cc1ccccc1C | -15.1
in ClC(Cl)(Cl)Cl | -14.4
in ClC(Cl)Cl | -16.2
in ClCCCl | -16.1
in O | -11.9
in c1ccccc1 | -15.6

CCCCCl
Conditions | solvation free energy, 298 K [kcal/mol]
in C1CCOC1 | -4.57
in C1CCOCC1 | -4.52
in C1COCCO1 | -4.4
in C=CCCCCCCCCCCCCCC | -3.77
in CC(C)(C)O | -3.7
in CC(C)=O | -4.26
in CC(C)CC(C)(C)C | -3.91
in CC(C)CO | -3.72
in CC(C)OC(C)C | -4.21
in CCC(C)O | -3.72
in CCCBr | -4.49
in CCCCCC | -4.05
in CCCCCCC | -3.96
in CCCCCCCCC=CCCCCCCCC(=O)OCC(COC(=O)CCCCCCCC=CCCCCCCCC)OC(=O)CCCCCCCC=CCCCCCCCC | -3.93
in CCCCCCCCCCCCCCCC | -3.68
in CCCCCCCCCCO | -3.67
in CCCCCCCCO | -3.71
in CCCCOC | -4.37
in CCCCOCCCC | -4.11
in CCCO | -3.59
in CCCOCCC | -4.23
in CCI | -4.43
in CCOC(C)=O | -4.31
in CCOCC | -4.38
in COC(C)(C)C | -4.3
in ClC(Cl)(Cl)Cl | -4.31
in ClCCCl | -4.43
in Clc1ccccc1 | -4.35
in O | -0.23
in [2H]O[2H] | -0.73

FC(F)(Cl)C(F)(Cl)Cl
Conditions | solvation free energy, 298 K [kcal/mol]
in C1CCOC1 | -3.37
in CC(C)=O | -3.31
in CCC(C)=O | -3.36
in CCOC(C)=O | -3.4
in COC(C)(C)C | -3.62
in COC(C)=O | -3.38
in Cc1cccc(C)c1 | -3.37
in ClC(Cl)(Cl)Cl | -3.27
in ClC(Cl)Cl | -3.46
in ClCCCl | -2.8
in O | 1.77

CCCC(=O)CC(=O)CC
Conditions | solvation free energy, 298 K [kcal/mol]
in O | -4.35

CCCC(=O)c1c(C)[nH]n(-c2ccccc2)c1=O
Conditions | solvation free energy, 298 K [kcal/mol]
in O | -9.51

C=CCC(C)C
Conditions | solvation free energy, 298 K [kcal/mol]
in C=CCCCCCCCCCCCCCC | -3.23
in O | 1.9

CC1CCCCC1O (stereo unspecified)
Conditions | solvation free energy, 298 K [kcal/mol]
in O | -4.79

ClC(Cl)Cl
Conditions | solvation free energy, 298 K [kcal/mol]
in Brc1cccc2ccccc12 | -3.79
in C1CCCC1 | -3.87
in C1CCOC1 | -5.13
in C1COCCO1 | -4.64
in C=CCCCCCCCCCCCCCC | -3.42
in CC#N | -4.31
in CC(=O)CC(C)C | -4.51
in CC(=O)N(C)C | -5.18
in CC(=O)OCc1ccccc1 | -4.25
in CC(C)=O | -4.67
in CCC(C)=O | -4.72
in CCCCCCC | -3.62
in CCCCCCCC | -3.52
in CCCCCCCCC=CCCCCCCCC(=O)OCC(COC(=O)CCCCCCCC=CCCCCCCCC)OC(=O)CCCCCCCC=CCCCCCCCC | -4.02
in CCCCCCCCCCCCCC | -3.35
in CCCCCCCCCCCCCCCC | -3.38
in CCCCCCCCCCCCO | -3.65
in CCCCCCCCN(CCCCCCCC)CCCCCCCC | -3.59
in CCCCCCCCO | -3.8
in CCCCCN(CCCCC)CCCCC | -3.82
in CCCCCl | -4.08
in CCCCN(C=O)CCCC | -4.83
in CCCCN(CCCC)CCCC | -3.69
in CCCCO | -4.02
in CCCCOCCCC | -4.16
in CCN(CC)C(C)=O | -5.18
in CCNC(C)=O | -4.57
in CCNC=O | -4.41
in CCO | -4.12
in CCOC(=O)c1ccccc1C(=O)OCC | -4.1
in CCOC(C)=O | -4.61
in CN1CCCC1=O | -5.24
in CN1CCCCC1=O | -5.27
in CNC(C)=O | -4.57
in CO | -4.12
in COC(C)=O | -4.67
in COCOC | -4.27
in CS(C)=O | -4.72
in ClC(Cl)(Cl)Cl | -4
in ClCCCl | -4.17
in NC=O | -2.91
in O | -1.08
in O=C1CCCCC1 | -4.73
in S=C=S | -4.15
in [2H]O[2H] | -1.26
in c1ccc2ncccc2c1 | -4.41

C=CCCCCCC
Conditions | solvation free energy, 298 K [kcal/mol]
in CC#N | -3.98
in CCC#N | -4.66
in CCCC#N | -4.42
in CCCCC(CC)COC(=O)CCCCC(=O)OCC(CC)CCCC | -4.72
in CCCCCCC | -5.17
in CCCCCCCCC=CCCCCCCCC(=O)OCC(COC(=O)CCCCCCCC=CCCCCCCCC)OC(=O)CCCCCCCC=CCCCCCCCC | -4.65
in CCCCCCCCO | -4.58
in CCCCOC(=O)c1ccccc1C(=O)OCCCC | -4.62
in CCN1CCCC1=O | -4.36
in CCN(CC)C(C)=O | -4.5
in CCNC(C)=O | -4.23
in CCNC=O | -3.97
in CCOC(=O)c1ccccc1C(=O)OCC | -4.11
in CN1CCCC1=O | -4.02
in CN(C)C=O | -3.89
in CNC=O | -3.6
in CS(C)=O | -3.04
in N#CCCCCC#N | -3.31
in NC=O | -1.58
in NCCO | -2.07
in Nc1ccccc1 | -3.82
in O | 1.93
in O=C1CCCO1 | -3.53
in O=CN1CCOCC1 | -3.4
in OCCO | -1.81
in OCCOCCO | -2.55
in OCCOCCOCCO | -2.78

Cc1cncc(C)c1
Conditions | solvation free energy, 298 K [kcal/mol]
in O | -4.84

CC(Cl)CCl (stereo unspecified)
Conditions | solvation free energy, 298 K [kcal/mol]
in CCCCCC | -4.17
in CCCCCCCCO | -4.03
in ClC(Cl)(Cl)Cl | -4.65

FC(F)(F)C(F)(F)C(F)(F)C(F)(F)C(F)(F)C(F)(F)F
Conditions | solvation free energy, 298 K [kcal/mol]
in CCCCCC | -2.12
in CCCO | -0.96

CCCCCCCCl
Conditions | solvation free energy, 298 K [kcal/mol]
in O | 0.29

N#CCc1ccc(C(=O)O)cc1
Conditions | solvation free energy, 298 K [kcal/mol]
in C=CCCCCCCCCCCCCCC | -10.2
in O | -12.9

CCCCCCBr
Conditions | solvation free energy, 298 K [kcal/mol]
in O | 0.18

CCCCCCCCCCCCCCCCCCCCCCCCCCC
Conditions | solvation free energy, 298 K [kcal/mol]
in CC(=O)N(C)C | -18.4
in CN(C)C=O | -18.5
in O | 5.74

ClC(Cl)=C(Cl)Cl
Conditions | solvation free energy, 298 K [kcal/mol]
in C1CCCC1 | -5.37
in C1CCOC1 | -5.43
in C1COCCO1 | -5.1
in CCC(C)=O | -4.98
in CCCCCCCCCCCCCCCC | -4.88
in CS(C)=O | -4.27
in ClC(Cl)(Cl)Cl | -5.48
in ClCCCl | -5.05
in O | -0.06

CN(C)CC=C(c1ccc(Br)cc1)c1cccnc1
Conditions | solvation free energy, 298 K [kcal/mol]
in O | -11.9

CCCCN(CCC)N=O
Conditions | solvation free energy, 298 K [kcal/mol]
in CC(C)CC(C)(C)C | -7.18
in O | -5.12

CCCCOC(=O)c1ccc(O)cc1
Conditions | solvation free energy, 298 K [kcal/mol]
in O | -8.72

CCCCC(=O)OC
Conditions | solvation free energy, 298 K [kcal/mol]
in CCCCCC | -4.93
in CCCCCCC | -4.91
in CCCCCCCC | -4.85
in CCCCCCCCCC | -4.75
in CO | -5.33
in O | -2.56

From the CombiSolv-Exp solvation set (Vermeire and Green 2021)
